From ChEMBL document CHEMBL5150065, “Design, synthesis, and bioevaluation of imidazo [1,2-a] pyrazine derivatives as tubulin polymerization inhibitors with potent anticancer activities” (Bioorg Med Chem, 2022)
Calls of active or inactive are those of the source. The rule behind the calls is not given here.

Columns and labels:
[1] = test system: HepG2; experiment: Antiproliferative activity against human HepG2 cells assessed as inhibition of cell growth incubated for 48 hrs by MTT assay; assay type: functional, cell-based; details: HepG2, 48 h
[2] = test system: HCT-116; experiment: Antiproliferative activity against human HCT-116 cells assessed as inhibition of cell growth incubated for 48 hrs by MTT assay; assay type: functional, cell-based; details: HCT-116, 48 h
[3] = test system: A549; experiment: Antiproliferative activity against human A549 cells assessed as inhibition of cell growth incubated for 48 hrs by MTT assay; assay type: functional, cell-based; details: A549, 48 h
[4] = test system: MDA-MB-231; experiment: Antiproliferative activity against human MDA-MB-231 cells assessed as inhibition of cell growth incubated for 48 hrs by MTT assay; assay type: functional, cell-based; details: MDA-MB-231, 48 h
[5] = biological target: Tubulin (Sus scrofa) (UniProt P02554+P02550); experiment: (§1) Inhibition of pig brain tubulin polymerization in the presence of GTP by spectrophotometric analysis; details: DDE = dose-dependent effect
[6] = biological target: Tubulin (Sus scrofa, UniProt P02554+P02550); experiment: as §1
[7] = test system: HCT-116; experiment: Induction of apoptosis in human HCT-116 cells assessed as total apoptotic cells at 20 nM incubated for 48 hrs by Annexin-V FITC/PI staining based flow cytometry analysis (reference value: 5.76 %); assay type: functional
[8] = test system: HCT-116; experiment: Induction of apoptosis in human HCT-116 cells assessed as total apoptotic cells at 40 nM incubated for 48 hrs by Annexin-V FITC/PI staining based flow cytometry analysis (reference value: 5.76 %); assay type: functional
[9] = test system: HCT-116; experiment: Induction of apoptosis in human HCT-116 cells assessed as total apoptotic cells at 80 nM incubated for 48 hrs by Annexin-V FITC/PI staining based flow cytometry analysis (reference value: 5.76 %); assay type: functional
[10] = test system: HCT-116; experiment: Induction of apoptosis in human HCT-116 cells assessed as total apoptotic cells at 120 nM incubated for 48 hrs by Annexin-V FITC/PI staining based flow cytometry analysis (reference value: 5.76 %); assay type: functional
[11] = test system: HCT-116; experiment: Induction of cell cycle arrest in human HCT-116 cells assessed as G1 phase cells at 20 nM measured after 48 hrs by propidium iodide/RNase staining based flow cytometry analysis (reference value: 61.51 %); assay type: functional
[12] = test system: HCT-116; experiment: Induction of cell cycle arrest in human HCT-116 cells assessed as S phase cells at 20 nM measured after 48 hrs by propidium iodide/RNase staining based flow cytometry analysis (reference value: […] %); assay type: functional
[13] = test system: HCT-116; experiment: Induction of cell cycle arrest in human HCT-116 cells assessed as increase in G2/M phase cells at 20 nM measured after 48 hrs by propidium iodide/RNase staining based flow cytometry analysis (reference value: […] %); assay type: functional
[14] = test system: HCT-116; experiment: Induction of cell cycle arrest in human HCT-116 cells assessed as G1 phase cells at 40 nM measured after 48 hrs by propidium iodide/RNase staining based flow cytometry analysis (reference value: 61.51 %); assay type: functional
[15] = test system: HCT-116; experiment: Induction of cell cycle arrest in human HCT-116 cells assessed as S phase cells at 40 nM measured after 48 hrs by propidium iodide/RNase staining based flow cytometry analysis (reference value: […] %); assay type: functional
[16] = test system: HCT-116; experiment: Induction of cell cycle arrest in human HCT-116 cells assessed as increase in G2/M phase cells at 40 nM measured after 48 hrs by propidium iodide/RNase staining based flow cytometry analysis (reference value: […] %); assay type: functional
[17] = test system: HCT-116; experiment: Induction of cell cycle arrest in human HCT-116 cells assessed as G1 phase cells at 80 nM measured after 48 hrs by propidium iodide/RNase staining based flow cytometry analysis (reference value: 61.51 %); assay type: functional
[18] = test system: HCT-116; experiment: Induction of cell cycle arrest in human HCT-116 cells assessed as S phase cells at 80 nM measured after 48 hrs by propidium iodide/RNase staining based flow cytometry analysis (reference value: […] %); assay type: functional
[19] = test system: HCT-116; experiment: Induction of cell cycle arrest in human HCT-116 cells assessed as increase in G2/M phase cells at 80 nM measured after 48 hrs by propidium iodide/RNase staining based flow cytometry analysis (reference value: […] %); assay type: functional
[20] = test system: HCT-116; experiment: Induction of cell cycle arrest in human HCT-116 cells assessed as G1 phase cells at 120 nM measured after 48 hrs by propidium iodide/RNase staining based flow cytometry analysis (reference value: 61.51 %); assay type: functional
[21] = test system: HCT-116; experiment: Induction of cell cycle arrest in human HCT-116 cells assessed as S phase cells at 120 nM measured after 48 hrs by propidium iodide/RNase staining based flow cytometry analysis (reference value: […] %); assay type: functional
[22] = test system: HCT-116; experiment: Induction of cell cycle arrest in human HCT-116 cells assessed as increase in G2/M phase cells at 120 nM measured after 48 hrs by propidium iodide/RNase staining based flow cytometry analysis (reference value: […] %); assay type: functional
[23] = test system: HCT-116; experiment: Inhibition of cell migration in human HCT-116 cells assessed as suppression of wound closure at 10 nM incubated for 48 hrs by wound healing assay relative to control; assay type: functional
[24] = test system: HCT-116; experiment: Inhibition of cell migration in human HCT-116 cells assessed as suppression of wound closure at 20 nM incubated for 48 hrs by wound healing assay relative to control; assay type: functional
[25] = test system: HCT-116; experiment: Inhibition of cell migration in human HCT-116 cells assessed as suppression of wound closure at 40 nM incubated for 48 hrs by wound healing assay relative to control; assay type: functional
[26] = test system: HCT-116; experiment: Inhibition of cell migration in human HCT-116 cells assessed as suppression of wound closure at 80 nM incubated for 48 hrs by wound healing assay relative to control; assay type: functional
[27] = biological target: T1, Tubulin (Homo sapiens) (UniProt P68371+Q9H4B7+P0DPH7+P68366+Q13509+Q71U36+P04350+Q3ZCM7+P07437+P68363+Q9BQE3+Q6PEY2+Q13885+Q9BVA1+Q9BUF5); experiment: Induction of microtubule disruption in human HCT-116 cells assessed as short microtubules at 20 to 60 nM incubated for 48 hrs by DAPI staining based confocal microscopic immunofluorescence analysis; assay type: cell-based; details: dose 20-60 nM
[28] = biological target: T1, Tubulin (Homo sapiens); experiment: Induction of microtubule disruption in human HCT-116 cells assessed as disintegrated microtubules at 20 to 60 nM incubated for 48 hrs by DAPI staining based confocal microscopic immunofluorescence analysis; assay type: cell-based; details: dose 20-60 nM

Tubulin (Sus scrofa), sequence (P02550 whole entry, looked up): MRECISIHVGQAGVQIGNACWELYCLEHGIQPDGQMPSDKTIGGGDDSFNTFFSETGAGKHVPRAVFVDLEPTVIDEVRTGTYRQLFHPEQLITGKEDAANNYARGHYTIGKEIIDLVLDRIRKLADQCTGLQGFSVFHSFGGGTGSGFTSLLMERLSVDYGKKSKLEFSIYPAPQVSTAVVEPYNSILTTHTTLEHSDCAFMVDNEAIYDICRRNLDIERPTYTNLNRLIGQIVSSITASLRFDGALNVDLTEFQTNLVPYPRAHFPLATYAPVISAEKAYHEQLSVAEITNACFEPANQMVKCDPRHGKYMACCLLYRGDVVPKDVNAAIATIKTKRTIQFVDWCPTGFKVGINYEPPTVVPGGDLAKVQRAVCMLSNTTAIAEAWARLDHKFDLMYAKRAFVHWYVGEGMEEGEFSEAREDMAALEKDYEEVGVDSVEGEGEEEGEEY
Tubulin (Sus scrofa), sequence (P02554 whole entry, looked up): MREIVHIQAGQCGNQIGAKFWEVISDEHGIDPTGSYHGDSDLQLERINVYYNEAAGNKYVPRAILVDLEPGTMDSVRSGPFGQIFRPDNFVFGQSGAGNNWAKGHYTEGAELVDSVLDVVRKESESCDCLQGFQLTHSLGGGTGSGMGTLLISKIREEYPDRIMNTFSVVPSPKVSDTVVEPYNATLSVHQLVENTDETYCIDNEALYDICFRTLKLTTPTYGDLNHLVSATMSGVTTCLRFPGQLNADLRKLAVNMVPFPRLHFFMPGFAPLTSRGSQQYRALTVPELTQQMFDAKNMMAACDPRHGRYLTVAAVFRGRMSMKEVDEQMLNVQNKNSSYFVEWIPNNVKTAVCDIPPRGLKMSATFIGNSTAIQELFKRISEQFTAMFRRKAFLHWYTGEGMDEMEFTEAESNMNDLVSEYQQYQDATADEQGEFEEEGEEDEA

SMILES: COc1cc(C(=O)c2cn3ccc(C)cc3n2)cc(OC)c1OC
- IC50 [1]: 6700 nM
- IC50 [2]: 3060 nM
- IC50 [3]: > 10000 nM
- IC50 [4]: 9280 nM

SMILES: COc1cc(-c2nccn3cc(-c4ccc(N)cc4)nc23)cc(OC)c1OC
- IC50 [1]: 252 nM
- IC50 [2]: 158 nM
- IC50 [3]: 287 nM
- IC50 [4]: 294 nM

SMILES: COc1cc(-c2nccn3cc(-c4ccccc4)nc23)cc(OC)c1OC
- IC50 [1]: 267 nM
- IC50 [2]: 266 nM
- IC50 [3]: 378 nM
- IC50 [4]: 364 nM

SMILES: COc1ccc(-c2cn3ccnc(-c4cc(OC)c(OC)c(OC)c4)c3n2)cc1
- IC50 [1]: 205 nM
- IC50 [2]: 191 nM
- IC50 [3]: 457 nM
- IC50 [4]: 105 nM

SMILES: COc1ccc(-c2cn3ccnc(-c4cc(OC)c(OC)c(OC)c4)c3n2)cc1O
- IC50 [1]: 87 nM
- IC50 [2]: 74 nM
- IC50 [3]: > 10000 nM
- IC50 [4]: > 10000 nM

SMILES: COc1cc(C(=O)c2cn3c(C(C)C)cccc3n2)cc(OC)c1OC
- IC50 [1]: > 10000 nM
- IC50 [2]: > 10000 nM
- IC50 [3]: > 10000 nM
- IC50 [4]: > 10000 nM

SMILES: COc1cc(-c2nccn3cc(-c4ccc(Cl)cc4)nc23)cc(OC)c1OC
- IC50 [1]: 475 nM
- IC50 [2]: 351 nM
- IC50 [3]: 7290 nM
- IC50 [4]: 2090 nM

SMILES: COc1cc(-c2nccn3cc(-c4ccc(O)cc4)nc23)cc(OC)c1OC
- IC50 [1]: 823 nM
- IC50 [2]: 901 nM
- IC50 [3]: > 10000 nM
- IC50 [4]: > 10000 nM

SMILES: COc1ccn2cc(C(=O)c3cc(OC)c(OC)c(OC)c3)nc2c1
- IC50 [1]: 4140 nM
- IC50 [2]: 6520 nM
- IC50 [3]: > 10000 nM
- IC50 [4]: > 10000 nM

SMILES: COc1cc(C(=O)c2cn3cc(Cl)cc(C(F)(F)F)c3n2)cc(OC)c1OC
- IC50 [1]: > 10000 nM
- IC50 [2]: > 10000 nM
- IC50 [3]: > 10000 nM
- IC50 [4]: > 10000 nM

SMILES: COc1cc(-c2nccn3cc(-c4ccc(F)cc4)nc23)cc(OC)c1OC
- IC50 [1]: 217 nM
- IC50 [2]: 263 nM
- IC50 [3]: 137 nM
- IC50 [4]: 401 nM

SMILES: COc1cc(-c2nccn3cc(-c4ccc(C)cc4)nc23)cc(OC)c1OC
- IC50 [1]: 160 nM
- IC50 [2]: 74 nM
- IC50 [3]: 135 nM
- IC50 [4]: 53 nM

SMILES: COc1cc(-c2nccn3cc(-c4ccc5[nH]ccc5c4)nc23)cc(OC)c1OC
- IC50 [1]: 146 nM
- IC50 [2]: 23 nM
- IC50 [3]: 154 nM
- IC50 [4]: 74 nM
- inhibition [5]: Dde
- IC50 [6]: 45700 nM
- Activity [7]: 6.25%
- Activity [8]: 29.53%
- Activity [9]: 37.2%
- Activity [10]: 50.07%
- Activity [11]: 61.42%
- Activity [12]: 17.47%
- Activity [13]: 21.11%
- Activity [14]: 60.42%
- Activity [15]: 21.98%
- Activity [16]: 17.6%
- Activity [17]: 11.9%
- Activity [18]: 8.87%
- Activity [19]: 79.23%
- Activity [20]: 8.17%
- Activity [21]: 12.16%
- Activity [22]: 79.67%
- inhibition at 0.01 µM [23]: 30.8%
- inhibition at 0.02 µM [24]: 55%
- inhibition at 0.04 µM [25]: 56.8%
- inhibition at 0.08 µM [26]: 60.6%
- Activity [27]: Active
- Activity [28]: Active
